Results as given in patent US9902736B2, “1-oxo/acylation-14-acylated oridonin derivative, preparation method therefor and application thereof” (HANGZHOU BENSHENG PHARMACEUTICAL CO., LTD., priority 2012, dated 2018).
In brackets after ≈: the same amount, converted by molar mass.

Tests used:
[1] = system: PANC-1; test: Solid tumor cell growth inhibition, MTT, 72 h; format: cell-based; settings: Homo sapiens
Procedure: (§1) 6000 well-growing human solid tumor cells were obtained and inoculated into wells of a 96-well cell culture plate. The culture medium was DMEM High Glucose cell culture medium containing 10% fetal bovine serum. The plate was placed in a carbon dioxide cell incubator (5% CO2) at 37° C. and incubated for 24 hours. After added with 1-oxo/acylated-14-acylated oridonin derivatives of different concentration and mixed uniformly, the plate was placed in a carbon dioxide cell incubator (5% CO2) at 37° C. and incubated for 72 hours. Then the viable cell concentration was determined by MTT method.

[2] = system: SK-OV-3; test: Solid tumor cell growth inhibition, MTT, 72 h; format: cell-based; settings: Homo sapiens, SK-OV-3, 72 h, MTT; for IC50: read-out: IC50 SK-OV-3; for IC90: read-out: IC90 SK-OV-3
Procedure: as §1

[3] = system: RKO; test: Solid tumor cell growth inhibition, MTT, 72 h; format: cell-based; settings: Homo sapiens
Procedure: as §1

[4] = system: MG-63; test: Solid tumor cell growth inhibition, MTT, 72 h; format: cell-based; settings: Homo sapiens
Procedure: as §1

[5] = system: A549; test: Solid tumor cell growth inhibition, MTT, 72 h; format: cell-based; settings: Homo sapiens
Procedure: as §1

[6] = system: CaEs-17; test: Solid tumor cell growth inhibition, MTT, 72 h; format: cell-based; settings: Homo sapiens, CaEs17
Procedure: as §1

[7] = system: Hep G2; test: Solid tumor cell growth inhibition, MTT, 72 h; format: cell-based; settings: Homo sapiens, HepG2
Procedure: as §1

[8] = system: PC-3; test: Solid tumor cell growth inhibition, MTT, 72 h; format: cell-based; settings: Homo sapiens
Procedure: as §1

[9] = system: U87-MG; test: Solid tumor cell growth inhibition, MTT, 72 h; format: cell-based; settings: Homo sapiens, U-87 MG
Procedure: as §1

[10] = system: Becap-37; test: Solid tumor cell growth inhibition, MTT, 72 h; format: cell-based; settings: Homo sapiens
Procedure: as §1

[11] = system: K562/ADR; test: Leukemia cell growth inhibition, MTT, 72 h; format: cell-based; settings: Homo sapiens
Source text: (§2) Leukemia cell lines: leukemia cell lines: K562/adr (drug-resistant, chronic myeloid leukemia, CML), NB4 (acute promyelocytic leukemia, AML), Kasumi-1 (acute myeloid leukemia M2 type, AML-M2), Jurkat (acute lymphoblastic leukemia, ALL), all of which were donated by Cancer Research Institute of Zhejiang University, China; and H9 (acute lymphoblastic leukemia, ALL), which was purchased from China Center for Type Culture Collection.
(§3) 6000 well-growing leukemia cells were obtained and inoculated into wells of a 96-well cell culture plate. […] On the next day, the 1-oxo/acylated-14-acylated oridonin derivatives of different concentrations were added and mixed uniformly. The plate was placed in a carbon dioxide cell incubator (5% CO2) at 37° C. and was incubated for 72 hours. Then the viable cell concentration was determined by MTT method.

[12] = system: Kasumi-1; test: Leukemia cell growth inhibition, MTT, 72 h; format: cell-based; settings: Homo sapiens
Source text: as §2, §3

[13] = system: RPMI 8226; test: Multiple myeloma cell growth inhibition, MTT, 72 h; format: cell-based; settings: Homo sapiens
Procedure: Multiple myeloma cell lines: RPMI8226 (multiple myeloma), purchased from Fuxiang Bio-tech Co. Ltd., Shanghai, China.
as §3, with “well-growing” for “well-growing leukemia”, “and” for “and was”

[14] = system: H9; test: Leukemia cell growth inhibition, MTT, 72 h; format: cell-based, human; settings: Homo sapiens, H9; 72 h, MTT
Source text: as §2, §3

[15] = system: NB4; test: Leukemia cell growth inhibition, MTT, 72 h; format: cell-based, human; settings: Homo sapiens, NB-4; 72 h, MTT
Source text: as §2, §3

[16] = system: Jurkat; test: Leukemia cell growth inhibition, MTT, 72 h; format: cell-based, human; settings: Homo sapiens, Jurkat; 72 h, MTT
Source text: as §2, §3

[17] = system: Hela; test: Solid tumor cell growth inhibition, MTT, 72 h; format: cell-based, human; settings: Homo sapiens, HeLa; 72 h, MTT
Procedure: as §1

[18] = system: Hep-2; test: Solid tumor cell growth inhibition, MTT, 72 h; format: cell-based, human; settings: Homo sapiens, HEp-2; 72 h, MTT
Procedure: as §1

[19] = system: CNE; test: Solid tumor cell growth inhibition, MTT, 72 h; format: cell-based, human; settings: Homo sapiens, CNE; 72 h, MTT
Procedure: as §1

[20] = system: MGC-803; test: Solid tumor cell growth inhibition, MTT, 72 h; format: cell-based, human; settings: Homo sapiens, MGC-803; 72 h, MTT
Procedure: as §1

IC50 [1] [µg/mL]	IC90 [1] [µg/mL]	IC50 [2] [µg/mL]	IC90 [2] [µg/mL]	IC50 [3] [µg/mL]	IC90 [3] [µg/mL]	IC50 [4] [µg/mL]	IC90 [4] [µg/mL]	IC50 [5] [µg/mL]	IC90 [5] [µg/mL]	IC50 [6] [µg/mL]	IC90 [6] [µg/mL]	IC50 [7] [µg/mL]	IC90 [7] [µg/mL]	IC50 [8] [µg/mL]	IC90 [8] [µg/mL]	IC50 [9] [µg/mL]	IC90 [9] [µg/mL]	IC50 [10] [µg/mL]	IC90 [10] [µg/mL]	Structure (SMILES)	other results
1.88 (≈ 3.57 µM)	9.81 (≈ 18.6 µM)	1.66 (≈ 3.15 µM)	3.04 (≈ 5.77 µM)	0.42 (≈ 0.798 µM)	0.94 (≈ 1.79 µM)	0.4 (≈ 0.76 µM)	0.96 (≈ 1.82 µM)	2.38 (≈ 4.52 µM)	5.33 (≈ 10.1 µM)	0.95 (≈ 1.8 µM)	3.05 (≈ 5.79 µM)	0.94 (≈ 1.79 µM)	5.47 (≈ 10.4 µM)	1.66 (≈ 3.15 µM)	3.04 (≈ 5.77 µM)	0.87 (≈ 1.65 µM)	2.41 (≈ 4.58 µM)	0.99 (≈ 1.88 µM)	3.17 (≈ 6.02 µM)	C=C1C(=O)[C@]23[C@H](OC(=O)c4ccc(OC)c(OC)c4)[C@H]1CC[C@H]2[C@@]12CO[C@@]3(O)[C@@H](O)[C@@H]1C(C)(C)CCC2=O [BS-OR-015]	IC50 [11]: 0.51 µg/mL (≈ 0.969 µM); IC90 [11]: 1.97 µg/mL (≈ 3.74 µM); IC50 [12]: 0.51 µg/mL (≈ 0.969 µM); IC90 [12]: 1.15 µg/mL (≈ 2.18 µM); IC50 [13]: 0.3 µg/mL (≈ 0.57 µM); IC90 [13]: 1.85 µg/mL (≈ 3.51 µM); IC50 [14]: 0.45 µg/mL (≈ 0.855 µM); IC90 [14]: 1.82 µg/mL (≈ 3.46 µM); IC50 [15]: 0.11 µg/mL (≈ 0.209 µM); IC90 [15]: 0.43 µg/mL (≈ 0.817 µM); IC50 [16]: 0.69 µg/mL (≈ 1.31 µM); IC90 [16]: 2.31 µg/mL (≈ 4.39 µM); IC50 [17]: 1.53 µg/mL (≈ 2.91 µM); IC90 [17]: 3.75 µg/mL (≈ 7.12 µM); IC50 [18]: 1.12 µg/mL (≈ 2.13 µM); IC90 [18]: 5.05 µg/mL (≈ 9.59 µM); IC50 [19]: 1.05 µg/mL (≈ 1.99 µM); IC90 [19]: 4.05 µg/mL (≈ 7.69 µM); IC50 [20]: 0.84 µg/mL (≈ 1.6 µM); IC90 [20]: 4.68 µg/mL (≈ 8.89 µM)
4.11 (≈ 8.79 µM)	10.2 (≈ 21.8 µM)	3.48 (≈ 7.44 µM)	7.54 (≈ 16.1 µM)	1.01 (≈ 2.16 µM)	1.98 (≈ 4.24 µM)	0.99 (≈ 2.12 µM)	3.84 (≈ 8.21 µM)	5.55 (≈ 11.9 µM)	10.7 (≈ 22.9 µM)	2.01 (≈ 4.3 µM)	10 (≈ 21.5 µM)	3.01 (≈ 6.44 µM)	16 (≈ 34.2 µM)	3.48 (≈ 7.44 µM)	7.54 (≈ 16.1 µM)	1.88 (≈ 4.02 µM)	6.17 (≈ 13.2 µM)	2.39 (≈ 5.11 µM)	6.29 (≈ 13.5 µM)	C=C1C(=O)[C@]23[C@H](OC(=O)c4ccncc4)[C@H]1CC[C@H]2[C@@]12CO[C@@]3(O)[C@@H](O)[C@@H]1C(C)(C)CCC2=O [BS-OR-012]	IC50 [11]: 0.75 µg/mL (≈ 1.6 µM); IC90 [11]: 3.2 µg/mL (≈ 6.84 µM); IC50 [12]: 1.15 µg/mL (≈ 2.46 µM); IC90 [12]: 2.39 µg/mL (≈ 5.11 µM); IC50 [13]: 0.92 µg/mL (≈ 1.97 µM); IC90 [13]: 3.48 µg/mL (≈ 7.44 µM); IC50 [14]: 0.75 µg/mL (≈ 1.6 µM); IC90 [14]: 1.99 µg/mL (≈ 4.26 µM); IC50 [15]: 0.32 µg/mL (≈ 0.684 µM); IC90 [15]: 1.3 µg/mL (≈ 2.78 µM); IC50 [16]: 0.99 µg/mL (≈ 2.12 µM); IC90 [16]: 5.77 µg/mL (≈ 12.3 µM); IC50 [17]: 2.42 µg/mL (≈ 5.18 µM); IC90 [17]: 6.3 µg/mL (≈ 13.5 µM); IC50 [18]: 3.61 µg/mL (≈ 7.72 µM); IC90 [18]: 14.7 µg/mL (≈ 31.5 µM); IC50 [19]: 2.47 µg/mL (≈ 5.28 µM); IC90 [19]: 9.36 µg/mL (≈ 20 µM); IC50 [20]: 1.79 µg/mL (≈ 3.83 µM); IC90 [20]: 3.99 µg/mL (≈ 8.53 µM)
9.1 (≈ 25 µM)	16 (≈ 43.9 µM)	7.94 (≈ 21.8 µM)	13 (≈ 35.6 µM)	2.24 (≈ 6.15 µM)	3.96 (≈ 10.9 µM)	1.86 (≈ 5.1 µM)	5.6 (≈ 15.4 µM)	13.7 (≈ 37.6 µM)	> 16	3.31 (≈ 9.08 µM)	6.86 (≈ 18.8 µM)	6.77 (≈ 18.6 µM)	13.1 (≈ 36 µM)	7.94 (≈ 21.8 µM)	13 (≈ 35.6 µM)	2.58 (≈ 7.08 µM)	6.67 (≈ 18.3 µM)	5.06 (≈ 13.9 µM)	12.9 (≈ 35.5 µM)	C=C1C(=O)[C@]23[C@H](O)[C@H]1CC[C@H]2[C@@]12CO[C@]3(O)[C@@H](O)[C@@H]1C(C)(C)CC[C@@H]2O [OR, Oridonin]	IC50 [11]: 1.32 µg/mL (≈ 3.62 µM); IC90 [11]: 3.46 µg/mL (≈ 9.49 µM); IC50 [12]: 1.32 µg/mL (≈ 3.62 µM); IC90 [12]: 3.72 µg/mL (≈ 10.2 µM); IC50 [13]: 2.73 µg/mL (≈ 7.49 µM); IC90 [13]: 5.68 µg/mL (≈ 15.6 µM); IC50 [14]: 1.36 µg/mL (≈ 3.73 µM); IC90 [14]: 3.57 µg/mL (≈ 9.8 µM); IC50 [15]: 0.78 µg/mL (≈ 2.14 µM); IC90 [15]: 2.4 µg/mL (≈ 6.59 µM); IC50 [16]: 1.89 µg/mL (≈ 5.19 µM); IC90 [16]: 3.95 µg/mL (≈ 10.8 µM); IC50 [17]: 5.22 µg/mL (≈ 14.3 µM); IC90 [17]: 10.7 µg/mL (≈ 29.4 µM); IC50 [18]: 4.66 µg/mL (≈ 12.8 µM); IC90 [18]: 7.99 µg/mL (≈ 21.9 µM); IC50 [19]: 5.45 µg/mL (≈ 15 µM); IC90 [19]: 10.5 µg/mL (≈ 28.9 µM); IC50 [20]: 5.88 µg/mL (≈ 16.1 µM); IC90 [20]: 7.95 µg/mL (≈ 21.8 µM)
